# Test results: patent US7025968B2, “CMV vaccines” (ChemoCentryx, Inc., priority 2000, dated 2006)
# pIC50, pKi: −log10 of the molar value.
# Columns and labels:
# [1] = tested on: rhCMV virions purified from RHDF cells; assay: 125I-fractalkine binding to virions (Example 4), rhCMV; design: species or system rhesus CMV strain 68.1; settings: 3 hours at 4° C., FIG. 7
# Experimental: (§1) Human dermal fibroblast (HDF) were infected at an MOI of 3 with human CMV strain Toledo or a Toledo strain in which the US28 gene had been replaced with a green fluorescent protein/gpt resistance cassette (Toledo deltaUS28) (see, e.g., Vieira, J. et al. (1998) J. Virol. 72:S158-65). Alternatively, rhesus dermal fibroblasts (RhDF) were infected at an MOI of 3 with rhesus CMV strain 68.1 (see ATCC # VR-677). At 96 hours post infection supernatants were collected.
# (§2) Supernatants were cleared by two spins at 1,500 rpm for 5 minutes in a bench top centrifuge. Virions were pelleted from the supernatant for 30 minutes at 10,000 rpm in a Beckman JA-21 or J-14 centrifuge or other similar centrifuge and resuspended in 0.5 ml TN buffer (0.05 M Tris/HCl, pH 7.4, 0.1M NaCl) then layered onto a 5 ml sucrose density gradient (20% to 70% w/v sucrose in TN) in a SW 50 centrifuge tube. Gradients were spun 90 minutes at 24,000 rpm in a Beckman SW50 centrifuge at 10° C. […]
# (§3) Following incubation, the assay wells were harvested under vacuum using filter plates, pre-soaked with PEI solution. Scintillation fluid was added, the plates sealed and the radioactivity in the various wells counted.
# [2] = tested on: Wild type HCMV virions expressing US28; assay: 125I-fractalkine binding to virions (Example 4), wild type HCMV; design: species or system human CMV strain Toledo; settings: 3 hours at 4° C., FIG. 7
# Experimental: as §1, §2, §3
# [3] = target: wild type virions (Toledo); assay: 125I-fractalkine competition binding to purified HCMV virions (Example 1); design: species or system HCMV strain Toledo; settings: about 3 hours at 4° C., FIG. 5, read-out: IC50, unlabeled fractalkine competing off labeled fractalkine
# Experimental: (§4) Human dermal fibroblasts were infected with HCMV strain Toledo or HCMV TolΔUS28 (Streblow et al., 1999, Cell 99:511-20) at an MOI of 0.01 and maintained at 37° C. and 5% CO2 in Dulbecco's minimal essential medium with 10% fetal calf serum and fed as necessary. At day 15 post infection supernatant was collected and clarified by two rounds of centrifugation at 400 g. Virions from the clarified supernatant were pelleted at 10,000 g, resuspended in TN (50 mM TRIS-Cl pH 7.5, 100 mM NaCl), and purified over two consecutive 20-70% sucrose gradients by standard techniques (Britt W J., 1984, Virology 135: 369-78). Virions were resuspended in 500 ul of assay buffer (20 mM HEPES, 140 mM NaCl, 1 mM CaCl2, 5 mM MgCl2, and with 0.2% bovine serum albumin) and 0.09 mL added to each well of assay plates containing serial dilutions of fractalkine (concentrations between 0-250 nM) in triplicate.
# (§5) Then 0.09 mL of ^125I-fractalkine diluted in assay buffer (final concentration ˜2-10 fM, with ˜30,000 cpm per well) was added, the plates sealed and incubated for approximately 3 hours at 4° C. on a shaker platform. The assay plates were harvested using Packard filter plates, pre-soaked in PEI solution, on the vacuum harvest apparatus. Scintillation fluid (35 μL) was added to all wells, the plates were sealed and counted in a Top Count scintillation counter. […]
# US28 = target: T1, US28 (Human cytomegalovirus, UniProt P69332); settings: Kledal et al., 1998; read-out: KI of binding to US28; cited from earlier work
# T1 sequence (P69332 1-354): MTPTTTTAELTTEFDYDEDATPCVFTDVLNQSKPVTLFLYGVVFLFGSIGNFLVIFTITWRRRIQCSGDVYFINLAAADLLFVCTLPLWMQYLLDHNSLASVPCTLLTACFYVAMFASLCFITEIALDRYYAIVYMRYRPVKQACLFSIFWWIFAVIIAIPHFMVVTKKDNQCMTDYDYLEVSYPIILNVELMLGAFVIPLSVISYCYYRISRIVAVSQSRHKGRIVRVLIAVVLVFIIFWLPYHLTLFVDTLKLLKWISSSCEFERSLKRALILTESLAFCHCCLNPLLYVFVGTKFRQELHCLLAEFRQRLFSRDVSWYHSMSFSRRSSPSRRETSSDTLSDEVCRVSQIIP
# [4] = tested on: Rhesus dermal fibroblasts infected with Rhesus CMV; assay: radioligand binding assay, 125I-fractalkine on rhCMV-infected cells (Example 3); settings: unlabeled fractalkine vs 125I-fractalkine ~50 pM, 2-4 hours at 4° C., FIG. 6; read-out: IC50, reduction of binding of labeled fractalkine to the receptor by 50%
# Experimental: Radioligand binding assays were carried our in the following manner. The target cells typically used in these assays were Rhesus dermal fibroblasts which had been infected with Rhesus; CMV for 3-7 days. Lots of cells verified for fractalkine binding were frozen until ready for use. For the assay, cells were thawed, washed, and resuspended in assay buffer (20 mM HEPES pH 7.1, 140 mM NaCl, 1 mM CaCl2, 5 mM MgCl2, and 0.2% bovine serum albumin) to a concentration of from 4×10^5 to 5×10^6 cells/ml.
# Serial dilutions of unlabeled fractalkine were prepared as a 10× solution in 20% DMSO, and 0.02 ml was placed in assay plates. Next 0.09 ml of cells was added to the assay plates containing the unlabeled fractalkine. Lastly, 0.09 ml of ^125I-fractalkine diluted in assay buffer (final concentration ˜50 pM, with 20,000-50,000 cpm per well) was added, the plates sealed and incubated for 2-4 hours at 4° C. on a shaker platform. Assay plates were harvested using Packard GF/B filter plates (pre-soaked in 0.3% polyethyleneimmine (PEI) solution) on a Packard vacuum cell harvester. Scintillation fluid was added to all wells, the plates were sealed and then counted in a Top Count scintillation counter. Control wells containing either diluent only (for total counts) or excess unlabeled fractalkine (1 μg/ml, for non-specific binding) were used to calculate the percent of total inhibition. […]
# [5] = tested on: virions with deletion of US28 from the genome (TolΔUS28); assay: 125I-fractalkine binding to purified US28-deleted HCMV virions (Example 1); settings: FIG. 5
# Experimental: as §4, §5
# [6] = tested on: HCMV virions lacking US28 (Toledo deltaUS28); assay: 125I-fractalkine binding to virions (Example 4), US28-deleted HCMV; design: species or system human CMV strain Toledo deltaUS28; settings: 3 hours at 4° C., FIG. 7
# Experimental: as §1, §2, §3
substance,measurement,setting,value
"fractalkine: CX3C chemokine, tends to be cell bound; binds with very high affinity to the US28 receptor of HCMV",binding of radiolabeled fractalkine to virions,[1],also bind to fractalkine
same,binding of radiolabeled fractalkine to virions,[2],bind fractalkine tightly
same,pIC50,[3],~10.40
same,pKi,US28,~10.30
same,pIC50,[4],10.36
same,binding of labeled fractalkine to virions,[5],virtually no binding
same,binding of radiolabeled fractalkine to virions,[6],do not bind fractalkine
